# Data taken from US20100311107A1, “Ultra-High Throughput Screening of Natural Products” (priority 2004, published 2010).
# Where two headings read alike, the source gives them in different places. Numbered stars: 1 amine (or outer) side, 2 acyl side, 3 side chain; on linkers, the order of the positions; unused ones are H or OH. Bridge positions count the residues as written; N and C are the ends. Square brackets hold non-standard residues; d marks the D form. Peptide text beside a SMILES is read from it. I, II: the chains in the order shown. Actinocin(9to1) = Cc1c2oc3c(C)ccc(C(=O)[*:1])c3nc-2c(C(=O)[*:2])c(N)c1=O; NMeV = CN[C@H](C(=O)O)C(C)C; Sar = CNCC(=O)O
# Assays:
# Type in all cases: cell-based, Escherichia coli
# screening strain CM166 = experiment: macrodroplet screening assay, zones of inhibition; conditions: soil actinomycetes in macrodroplets, DNA and biotin in medium
# Procedure: (§1) After the period of incubation as described above, macrodroplets can be screened for biological activities by a unique technique termed macrodroplet screening assay. The biological activities of compounds secreted by the encapsulated microorganisms and contained within the macrodroplet beads can be detected by, for example, cell growth inhibition. In general, screening strains should first be cultured to a certain cell density (proper OD reads as described in section 5.3.3.) in liquid medium and then plated in semi-solid medium matrix (0.8%), which overlays the macrodroplet beads (see FIG. 1, item 140. Item 145 of FIG. 1 represents the top layer of semi-solid medium matrix containing a selected screening strain). After being incubated overnight, the screening strain can grow throughout the matrix, except in areas where macrodroplet beads release metabolites, which prevent the growth of the screening strain. The inhibition of cell growth may result in zones of inhibition around these beads (see item 155, FIG. 1), which usually can be detected visually.
# Next, microorganisms from the soil samples collected as described above were encapsulated to form macrodroplets populated by a single microorganism in each bead, according to the pre-determined cfu count of the particular soil extract. In this process, an aliquot of the soil bacteria suspension was diluted in 10% glycerol to generate an inoculum of the required density. This adjusted suspension was then mixed with nutrient medium, counterselective agents (see above) and 1.4% sodium alginate and the resultant mixture processed through an Inotech Encapsulator® Research device, to produce gel-beads (called macrodroplets) by the formation of droplets of liquid from a fluid stream. The droplets solidified into gel-beads as they came into contact with a calcium chloride bath, which also contained nutrient medium and counterselective agents. After a defined hardening time the macrodroplets were washed to remove excess calcium chloride and to stop the hardening process. Smidsrod and Skjak-Braek, 1990, “Alginate as immobilization matrix for cells,” Trends Biotechnol. 8(3):71-8. Cured macrodroplets containing microorganisms were then spread in dishes from which excess fluid was removed. The macrodroplets subsequently allowed growth of the target organisms and production of secondary metabolites such as anti-microbial agents. Macrodroplets were spread evenly over the plate using a sterile spreader (5,000 particles per plate) and incubated at 28-30° C. for 7 days to allow the growth of the microorganism within, and the production of secondary metabolites.
# CM166 (see section 5.3.1.b for details) was used as the test strain in this example. Two to three single colonies of CM166 were inoculated into a shake flask containing 10 ml of MHB medium with 40 μg/ml Tmp and 200 μg/ml Amp. After the cells were cultured at 35° C. for 2-3 hours, an OD reading was performed. If the OD reading was above 0.1 (equivalent to 2×10^8 cfu), the screening strain was ready for dilution. Otherwise, the strain needed to be incubated for longer time until the OD read reached >0.1. Medium for the macrodroplet assay (in 1 L Duran, add 10.5 g MHB power, 4 g agar (0.8%), and 1 g DNA) was autoclaved and cooled to ˜45° C., and ampicillin (25 mg/ml), tetracycline (10 mg/ml), daptomycin (20 mg/ml) and biotin (0.1 μg/ml) were added, together with 2.5 ml screening strain. […]
# [1] = tested on: E. coli screening strain CM435; set-up: Minimal inhibitory concentrations (MIC90) CM435: unit not given here
# E. coli MG1655 = tested on: E. coli MG1655; set-up: unit not given here
# Procedure: (§2) The screening strain, DR1234, was established after all desired drug-resistant genes listed in Table 5 had been delivered into the parent E. coli strain, MG1655, by methods described above. Its level of drug resistance was analyzed by the standard minimum inhibitory concentration (MIC) assay in MHB liquid medium (Chantot, et al., 1986, “Antibacterial activity of roxithromycin: a laboratory evaluation,” J. Antibiot, 39(5):660-8) and the result was summarized in Table 7.
# (§3) The level of drug resistance of CM166 was estimated by MIC assay carried out in MHB liquid medium and the results were summarized in Table 9. CM166 is resistant to antibacterial agents whose resistant genes have been incorporated into the strain, but not to other antibacterial drugs whose resistant genes are not incorporated.
# (§4) The level of drug-resistance of screening strain DR1212 was analyzed by standard MIC assay in MHB liquid medium and the result was summarized in Table 11. Similar to screening strains, DR1234 and CM166, DR1212 is also resistant to drugs whose resistant genes have been introduced.
# (§5) The level of drug resistance of these screening strains (both intermediates and finals) was evaluated by standard MIC assay in MHB liquid medium and the result of Strain CM242 is summarized in Table 12.
# (§6) The level of drug resistance of screening strains CM400 and CM435 was evaluated by standard MIC assay in MHB liquid medium and the results are summarized in Table 13. According to the MIC results, CM435 is hypersensitive to Bleomycin, Daunorucibin, Coumermycin A1 and Erythromycin. Screening strain CM435 and others, which are hypersensitive to certain types of antimicrobial agents, are advantageous in detecting bioactive compounds with low concentration in the screening system.
# [2] = tested on: lacZ reporter gene of the screening strains (CM191, CM242); experiment: S-Gal staining assay on solid medium; conditions: for lacZ reporter gene expression (S-Gal, blue-colored rings): screening strains on solid medium, drug-impregnated disks, PETG to suppress background
# From the text: The screening strains' responses to DNA damaging agents were further confirmed by S-Gal staining assay. When mitomycin C and streptonigrin (both were well-known DNA damaging drugs) and S-Gal, the indicator, were applied to the screening strains growing on solid medium, blue-colored rings were visible around colonies in drug-impregnated disks. […] Actinomycin D was an exception. CM242 was not sensitive to this drug, although it disrupts DNA structure. PETG (2-phenyethyl B-D-thiogalactoside, Sigma, St Louis Mo.), was used in this experiment to suppress unspecific background activity.
# screening strain DR1212 = experiment: macrodroplet screening assay for DNA-interacting agents; conditions: DNA excluded from the bioassay medium
# Procedure: as §1
# Screening for DNA-interacting agents was carried out using the standard macrodroplet screening method previously described, with the exception that DNA was excluded from the bioassay medium. Following overnight incubation at 35° C., macrodroplet beads from zones of inhibition are recovered and processed via the normal route as discussed in section 5.2.2.4.
# Alternatively, a second round screening was performed to increase specificity of the screening. Microorganisms obtained as the outcome of the screening described above were subject to a second round of screening using screening strains having a lacZ reporter gene controlled by promoters responsive to DNA damage, such as CM191 and CM242 (see section 5.3.1.d. The details of screening procedure are discussed in both section 5.2.3. Microorganisms from macrodroplets producing zones of activity were purified using methods previously described and fermented in larger volumes. Their species specificities were determined by sequencing their 16S rRNA genes and the active compounds were purified and further characterized. Several active compounds were selected by DR1212, such as chrysomycin, streptonigrin, daunomycin and chromomycin, which are all known DNA damaging agents.
# [3] = tested on: E. coli screening strain CM242; set-up: unit not given here
# Procedure: as §5
# [4] = tested on: E. coli screening strain DR1234; set-up: unit not given here
# Procedure: as §2
# [5] = tested on: E. coli screening strain CM400; set-up: unit not given here
# Procedure: as §6
# [6] = tested on: E. coli screening strain CM166; set-up: unit not given here
# From the text: as §3
# [7] = tested on: E. coli screening strain DR1212; set-up: unit not given here
# Procedure: as §4
# [8] = tested on: BW25113 strain containing drug-resistant genes inserted into the bioA locus; experiment: drug resistance characterization of strain with Tn7 cassette in bioA locus; conditions: BW25113 with Tn7 cassette in bioA, native sat promoter
# From the text: Therefore, a functional copy was introduced by homologous recombination as described hereafter. The drug-resistant gene of interest was synthesized in vitro using PCR with oligonucleotide primers that contained homologous sequences to the target genes and an additional ˜50 by homologous to a particular chromosomal site of the recipient strain. For instance, to insert the Tn7-associated resistance gene cassette dhfrI-sat-aadA into the bioA gene locus of the recipient strain, the primers listed in Table 6 were used. The capitalized portions of these primers hybridized to Tn7 template DNA upstream and downstream of the resistance gene cassette and allowed PCR amplification of the target fragment (Roche (Mannheim, Germany) Long Template PCR System). The ˜50 by additional sequence of these oligonucleotides (low case) afforded regions of homology with the chromosomal target site of the recipient, in this instance, the bioA gene locus (Table 6). The PCR product of the above reaction was introduced into a specialized strain, BW25113 (obtained from the E. coli Genetic Stock Center, strain # 7739) by standard electroporation following the manufacturer's instruction of BioRad (Hercules, Calif.) Gene Pulser, model #1652076, for standard electroporation of E. coli. Double-crossover homologous recombination, mediated by the bacteriophage lambda Red recombinase present in the strains pKD46 [#7630], pKD78 [#7989] or pKD119 [#7990], occurred between the “bioA” locus of the recipient strain and the PCR products via their homologous regions designed in the PCR primers as described above, resulting in the insertion of the drug resistance cassette into the bioA locus of the chromosome (FIG. 3, item 315). […] Once verified by drug resistance characterization and diagnostic PCR assay (see above), the drug resistance-encoding locus from the BW25113/pKD46 strain was introduced into the same locus of the recipient screening strain by standard P1 transduction as described above, also see FIG. 3, item 310.
# To increase the gene expression level, the T7 promoter was used to replace the weak promoter of sat gene.
compound,measurement,setting,value
albomycin,bioactive compound of actinomycete strains selected with CM166,screening strain CM166,bioactive
COC1=C(N)C(=O)c2nc(-c3nc(C(=O)O)c(C)c(-c4ccc(OC)c(OC)c4O)c3N)ccc2C1=O [Streptonigrin],Minimal inhibitory concentrations (MIC90) CM435,"[1]; Table 13, MHB medium",0.5
same,Minimal inhibitory concentrations (MIC90) MG1655,"E. coli MG1655; Table 7, MHB medium",3.2
same,Minimal inhibitory concentrations (MIC90) MG1655,"E. coli MG1655; Table 9, MHB medium",3.2
same,Minimal inhibitory concentrations (MIC90) MG1655,"E. coli MG1655; Table 11, MHB medium",3.2
same,Minimal inhibitory concentrations (MIC90) MG1655,"E. coli MG1655; Table 13, MHB medium",8
same,Minimal inhibitory concentrations (MIC90) MG1655,"E. coli MG1655; second Table 12, MHB medium",3.2
same,"lacZ reporter gene expression (S-Gal, blue-colored rings)",[2],induced
same,active compound selected by DR1212,screening strain DR1212,active
same,Minimal inhibitory concentrations (MIC90) CM242,"[3]; second Table 12, MHB medium",3.2
same,Minimal inhibitory concentrations (MIC90) DR1234,"[4]; Table 7, MHB medium",3.2
same,Minimal inhibitory concentrations (MIC90) CM400,"[5]; Table 13, MHB medium",8
same,Minimal inhibitory concentrations (MIC90) CM166,"[6]; Table 9, MHB medium",1.6
same,Minimal inhibitory concentrations (MIC90) DR1212,"[7]; Table 11, MHB medium",≦0.2
streptavidin,bioactive compound of actinomycete strains selected with CM166,screening strain CM166,bioactive
CC(=O)Nc1c2sscc-2n(C)c1=O [thiolutin],bioactive compound of actinomycete strains selected with CM166,screening strain CM166,bioactive
COC1C(O)CC(OC2CC(Oc3cc4cc5c(c(O)c4c(O)c3C)C(=O)[C@@H](OC3CC(OC4CC(OC6CC(C)(O)C(OC(C)=O)C(C)O6)C(O)C(C)O4)C(O)C(C)O3)[C@H]([C@H](OC)C(=O)[C@@H](O)[C@@H](C)O)C5)OC(C)C2OC(C)=O)OC1C (some centres unmarked) [chromomycin],active compound selected by DR1212,screening strain DR1212,active
COc1cc(Cc2cnc(N)nc2N)cc(OC)c1OC [Trimethoprim],Minimal inhibitory concentrations (MIC90) CM435,[1],>64
same,"lacZ reporter gene expression (S-Gal, blue-colored rings)",[2],not expressed
same,Minimal inhibitory concentrations (MIC90) CM242,[3],>400
same,Minimal inhibitory concentrations (MIC90) DR1234,[4],>400
same,Minimal inhibitory concentrations (MIC90) CM400,[5],>64
same,Minimal inhibitory concentrations (MIC90) CM166,[6],>400
same,Minimal inhibitory concentrations (MIC90) DR1212,[7],>400
same,"resistance conferred, concentration",[8],at least 10 ug/ml
chrysomycin,active compound selected by DR1212,screening strain DR1212,active
"Cc1c2oc3c(C)ccc(C(=O)N[C@@H]4C(=O)N[C@H](C(C)C)C(=O)N5CCC[C@H]5C(=O)N(C)CC(=O)N(C)[C@@H](C(C)C)C(=O)O[C@@H]4C)c3nc-2c(C(=O)N[C@@H]2C(=O)N[C@H](C(C)C)C(=O)N3CCC[C@H]3C(=O)N(C)CC(=O)N(C)[C@@H](C(C)C)C(=O)O[C@@H]2C)c(N)c1=O [Actinomycin D] (I: T[dV]P[Sar][NMeV] / II: T[dV]P[Sar][NMeV]; ester I:1-I:C, II:1-II:C; linker I:N-II:N via Actinocin(9to1))",Minimal inhibitory concentrations (MIC90) CM435,"[1]; Table 13, MHB medium",256
same,Minimal inhibitory concentrations (MIC90) MG1655,"E. coli MG1655; Table 7, MHB medium",200
same,Minimal inhibitory concentrations (MIC90) MG1655,"E. coli MG1655; Table 9, MHB medium",200
same,Minimal inhibitory concentrations (MIC90) MG1655,"E. coli MG1655; Table 11, MHB medium",200
same,Minimal inhibitory concentrations (MIC90) MG1655,"E. coli MG1655; Table 13, MHB medium",256
same,Minimal inhibitory concentrations (MIC90) MG1655,"E. coli MG1655; second Table 12, MHB medium",200
same,sensitivity of CM242 reporter to the drug,"[2]; CM242, S-Gal staining",not sensitive
same,Minimal inhibitory concentrations (MIC90) CM242,"[3]; second Table 12, MHB medium",200
same,Minimal inhibitory concentrations (MIC90) DR1234,"[4]; Table 7, MHB medium",100
same,Minimal inhibitory concentrations (MIC90) CM400,"[5]; Table 13, MHB medium",256
same,Minimal inhibitory concentrations (MIC90) CM166,"[6]; Table 9, MHB medium",50
same,Minimal inhibitory concentrations (MIC90) DR1212,"[7]; Table 11, MHB medium",50.0
CCC(=O)Nc1c2sscc-2n(C)c1=O [aureothricin],bioactive compound of actinomycete strains selected with CM166,screening strain CM166,bioactive
COc1cccc2c1C(=O)c1c(O)c3c(c(O)c1C2=O)C[C@@](O)(C(C)=O)C[C@@H]3O[C@H]1C[C@H](N)[C@H](O)[C@H](C)O1 [Daunorubicin],sensitivity of CM435 according to the MIC results,[1]; MHB liquid medium,hypersensitive
same,Minimal inhibitory concentrations (MIC90) CM435,"[1]; Table 13, MHB medium",8
same,Minimal inhibitory concentrations (MIC90) MG1655,"E. coli MG1655; Table 7, MHB medium",200
same,Minimal inhibitory concentrations (MIC90) MG1655,"E. coli MG1655; Table 9, MHB medium",200
same,Minimal inhibitory concentrations (MIC90) MG1655,"E. coli MG1655; Table 11, MHB medium",200
same,Minimal inhibitory concentrations (MIC90) MG1655,"E. coli MG1655; Table 13, MHB medium",>256
same,Minimal inhibitory concentrations (MIC90) MG1655,"E. coli MG1655; second Table 12, MHB medium",200
same,active compound selected by DR1212,screening strain DR1212,active
same,Minimal inhibitory concentrations (MIC90) CM242,"[3]; second Table 12, MHB medium",100
same,Minimal inhibitory concentrations (MIC90) DR1234,"[4]; Table 7, MHB medium",>400
same,Minimal inhibitory concentrations (MIC90) CM400,"[5]; Table 13, MHB medium",>256
same,Minimal inhibitory concentrations (MIC90) CM166,"[6]; Table 9, MHB medium",>400
same,Minimal inhibitory concentrations (MIC90) DR1212,"[7]; Table 11, MHB medium",12.5
O=C(O)/C=C/CC[C@@H]1SC[C@@H]2NC(=O)N[C@@H]21 [lydimycin],bioactive compound of actinomycete strains selected with CM166,screening strain CM166,bioactive
